Source: patent US12240867B2, “Arginase inhibitors and methods of use” (Merck Sharp & Dohme LLC, priority 2018, dated 2025)
Where two headings read alike, the source gives them in different places.

Columns and labels:
Arginase = target: T1, Arginase (Homo sapiens, UniProt P05089); test: Arginase Thioornithine Generating Assay (TOGA); format: biochemical
T1 sequence (P05089 1-322): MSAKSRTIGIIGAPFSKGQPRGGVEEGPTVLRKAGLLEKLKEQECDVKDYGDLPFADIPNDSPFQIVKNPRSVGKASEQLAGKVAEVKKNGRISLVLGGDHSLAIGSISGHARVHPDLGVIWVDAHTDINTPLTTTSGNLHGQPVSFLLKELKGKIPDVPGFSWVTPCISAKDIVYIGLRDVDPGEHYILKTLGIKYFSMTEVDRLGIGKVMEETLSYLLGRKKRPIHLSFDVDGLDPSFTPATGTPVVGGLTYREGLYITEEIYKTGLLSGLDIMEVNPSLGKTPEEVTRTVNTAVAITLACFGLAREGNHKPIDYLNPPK
Method: Arginase Thioornithine Generating Assay (TOGA)
Compounds were serially diluted in ten 3-fold steps in DMSO starting from 10 mM DMSO stocks. Compound dilutions or DMSO alone were then dispensed from the dilution plate into a Greiner black 384-well assay plate (catalog #781086) using an Echo 555 acoustic liquid handler (Labcyte).
Arginase protein was recombinantly expressed in Escherichia coli. Purified protein was then diluted in assay buffer (50 mM Tris pH 7.5, 50 mM NaCl, 1 mM manganese chloride, 0.0500 bovine serum albumin to obtain a final Arginase concentration of 1.88 nM. Arginase solution ([…])) or buffer alone (20 μL) were dispensed to wells of the assay plate using a BioRAPTR liquid dispenser (Beckman Coulter). Assay plates containing compound and arginase enzyme were incubated at room temperature for 30 minutes. Afterwards, 5 µL of 2.5 mM thioarginine (Cayman Chemicals) in assay buffer were added to each well of the assay plate using a BioRAPTR liquid dispenser. Plates were incubated at room temperature for 60 minutes and reactions were quenched by addition of 15 μL of 200 uM 7-Diethylamine-3-(4-maleimidophenyl)-4-methyl coumarin (Sigma Chemical) in 70% ethanol. Plates were briefly shaken to mix and the fluorescence was measured in an Spectramax plate reader (Molecular Devices) with a 410 nm excitation wavelength and an 490 nm emission wavelength.
Potencies were calculated by […] least squares fit to the four parameter logistic IC50 equation.

live female rabbits = conditions: cited from earlier work
penile corpus cavernosum = conditions: rabbit and human penile corpus cavernosum; cited from earlier work
[1] = tested on: corpus cavernosum of the diabetic man; conditions: ex vivo; cited from earlier work
[2] = tested on: opossum internal anal sphincter muscle; conditions: cited from earlier work
allergic asthma model = conditions: nebulizer treatment of guinea pigs; cited from earlier work
live male rabbits = conditions: cited from earlier work
[3] = tested on: experimental autoimmune encephalomyelitis; conditions: experimental autoimmune encephalomyelitis animal model; cited from earlier work
[4] = Top Dose 10000 nM, read-out: Percent Inhibition at Top Dose
[5] = read-out: Percent Inhibition at Top Dose, Top Dose 10000 nM

## O=C(O)C12CNCC1(CCCB(O)O)CCN2 (racemic) [Example 6, racemic 3a-(3-boronopropyl)hexahydropyrrolo[3,4-b]pyrrole-6a(H)-carboxylic acid]
Arginase; [4]
  inhibition at 10 µM: 91.9%

## CN1CC2(CCCB(O)O)CCNC2(C(=O)O)C1 (racemic) [Example 7, Racemic 3a-(3-boronopropyl)-5-methylhexahydropyrrolo[3,4-b]pyrrole-6a(1H)-carboxylic acid]
Arginase; [4]
  inhibition at 10 µM: 85.1%

## N[C@@H](CCCCB(O)O)C(=O)O [ABH, (S)-2-amino-6-boronohexanoic acid]
Live female rabbits
  engorgement response in the genitalia: enhances the engorgement response
Penile corpus cavernosum
  nitric oxide-dependent relaxation of corpus cavernosum tissue: enhances the nitric oxide-dependent relaxation of this tissue
[1]
  nitric oxide biosynthesis: restores nitric oxide biosynthesis
[2]
  relaxation of internal anal sphincter muscle: relax this muscle
Allergic asthma model
  airway hyperresponsiveness: prevents airway hyperresponsiveness
Live male rabbits
  erectile response: enhances the erectile response
[3]
  disease score: improves the disease score

## C[C@H](N)C(=O)N1C[C@@]2(CCCB(O)O)CCN[C@@]2(C(=O)O)C1 [Example 1, (3aR,6aR)-5-(L-alanyl)-3a-(3-boronopropyl)hexahydropyrrolo[3,4-b]pyrrole-6a(H)-carboxylic acid]
Arginase; [5]
  inhibition at 10 µM: 99.7%

## NCC(=O)N1C[C@@]2(CCCB(O)O)CCN[C@@]2(C(=O)O)C1 [Example 3, (3aR,6aR)-3a-(3-boronopropyl)-5-glycylhexahydropyrrolo[3,4-b]pyrrole-6a(H)-carboxylic acid]
Arginase; [5]
  inhibition at 10 µM: 89.5%

## O=C(O)[C@]12CNC[C@@]1(CCCB(O)O)CCN2 [Example 4, (3aR,6aR)-3a-(3-boronopropyl)hexahydropyrrolo[3,4-b]pyrrole-6a(1H)-carboxylic acid]
Arginase; [4]
  inhibition at 10 µM: 98.2%
Arginase; recombinant arginase 1.88 nM, thioarginine substrate, fluorescence readout
  IC50: 46 nM

## O=C(O)[C@@]12CNC[C@]1(CCCB(O)O)CCN2 [Example 5, (3aS,6aS)-3a-(3-boronopropyl)hexahydropyrrolo[3,4-b]pyrrole-6a(H)-carboxylic acid]
Arginase; [4]
  inhibition at 10 µM: 93%

## CC(C)[C@H](N)C(=O)N1C[C@@]2(CCCB(O)O)CCN[C@@]2(C(=O)O)C1 [Example 8, (3aR,6aR)-5-(L-valyl)-3a-(3-boronopropyl)hexahydropyrrolo[3,4-b]pyrrole-6a(H)-carboxylic acid]
Arginase; [4]
  inhibition at 10 µM: 99%

## N[C@@H](CO)C(=O)N1C[C@@]2(CCCB(O)O)CCN[C@@]2(C(=O)O)C1 [Example 9, (3aR,6aR)-5-(L-seryl)-3a-(3-boronopropyl)hexahydropyrrolo[3,4-b]pyrrole-6a(1H)-carboxylic acid]
Arginase; [5]
  inhibition at 10 µM: 97.3%

## O=C([C@@H]1CCCN1)N1C[C@@]2(CCCB(O)O)CCN[C@@]2(C(=O)O)C1 [Example 10, (3aR,6aR)-5-(L-prolyl)-3a-(3-boronopropyl)hexahydropyrrolo[3,4-b]pyrrole-6a(1H)-carboxylic acid]
Arginase; [5]
  inhibition at 10 µM: 96.6%

## O=C(O)[C@]12CNC[C@@]1(CCCB(O)O)CN2 [Example 11, (1S,5R)-1-(3-boronopropyl)-3,6-diazabicyclo[3.2.0]heptane-5-carboxylic acid]
Arginase; [4]
  inhibition at 10 µM: 99.5%

## NC[C@@H]1NC[C@]2(C(=O)O)NCC[C@]12CCCB(O)O [Example 12, (3aR,4R,6aR)-4-(aminomethyl)-3a-(3-boronopropyl)hexahydropyrrolo[3,4-b]pyrrole-6a(1H)-carboxylic acid]
Arginase; [5]
  inhibition at 10 µM: 100%

## CSCC[C@H](N)C(=O)N1C[C@@]2(CCCB(O)O)CCN[C@@]2(C(=O)O)C1 [Example 13]
Arginase; [4]
  inhibition at 10 µM: 102%

## CC(C)(C)[C@H](N)C(=O)N1C[C@@]2(CCCB(O)O)CCN[C@@]2(C(=O)O)C1 [Example 14]
Arginase; [4]
  inhibition at 10 µM: 102%

## CC(C)C[C@H](N)C(=O)N1C[C@@]2(CCCB(O)O)CCN[C@@]2(C(=O)O)C1 [Example 15]
Arginase; [4]
  inhibition at 10 µM: 96.7%

## CC(C)(N)C(=O)N1C[C@@]2(CCCB(O)O)CCN[C@@]2(C(=O)O)C1 [Example 16]
Arginase; [4]
  inhibition at 10 µM: 97.3%

## COC[C@H](N)C(=O)N1C[C@@]2(CCCB(O)O)CCN[C@@]2(C(=O)O)C1 [Example 17]
Arginase; [4]
  inhibition at 10 µM: 97.8%

## C[C@H](N)C(=O)N1C[C@@]2(CCCB3O[C@@H]4C[C@@H]5C[C@@H](C5(C)C)[C@]4(C)O3)CCN[C@@]2(C(=O)O)C1 [Example 18, (3aR,6aR)-5-(L-alanyl)-3a-(3-((3aS,4S,6S,7aR)-3a,5,5-trimethylhexahydro-4,6-methanobenzo[d][1,3,2]dioxaborol-2-yl)propyl)hexahydropyrrolo[3,4-b]pyrrole-6a(1H)-carboxylic acid]
Arginase; [4]
  inhibition at 10 µM: 97.9%
